The assay has as its target T1, FGFR2 (N549H) (Homo sapiens, UniProt P21802, N549H).
T1 construct: purchased Millipore 14-742
Description: FGFR2 kinase activity assay (fluorescent ELISA). The assay is classed as biochemical. The settings on record: 30 μM compound. As to the method: A fluorescent ELISA assay was developed to identify and characterize inhibitors of FGFR2 kinase. This heterogeneous assay utilized a biotinylated peptide with a tyrosine motif as a substrate and an anti-phospho-tyrosine antibody to measure phosphorylation of the substrate. The reaction was initiated by adding a test compound, 37 uM Pyk2 substrate (Midwest Biotech, cat. #MBT2383), 12.5 uM ATP (Roche, cat. #11 140 965 001), and 0.5 uM FGFR2 enzyme (Millipore, cat. #14-742) sequentially to a non-binding polypropylene V-well plate. All reagents were in assay buffer consisting of: 50 mM Tris-HCL, 0.02 mg/mL BSA, 10 mM MgCl2, 0.1 mM Na3VO4, 1 mM EGTA, […], 0.01% NP-40, 2 mM DTT, 10% Glycerol. The reaction was incubated for 60 minutes. As the reaction proceeded, FGFR2 phosphorylated tyrosines in the peptide. The reaction mixture was then moved to a blocked streptavidin coated Nunc Maxisorb plate (coated with 100 ng streptavidin from Pierce (cat #15-124) per well) allowing for the capture of the biotinylated peptide. Peptide was captured for 30 minutes at room temperature, the phosphorylation of peptide continues during this phase. The reaction was stopped by washing the Streptavidin plate 6 times with TBST. Phosphorylated peptide was detected by adding anti-phospho tyrosine antibody (purchased from Cell Signaling, cat. #9411, diluted 1:3000), unbound antibody was removed by washing 6 times with TBST. Secondary detection was performed using Alkaline Phosphatase tagged goat anti-mouse antibody (purchased from Pierce, cat. #31320, diluted 1:4000) for one hour. Unbound secondary antibody was removed by washing 6 times with TBST.
The fluorescent readout was initiated by the addition of Promega Attophos substrate (purchased from Promega; Kit catalog number: S1000, dilution=6 mg/10 mL), which when dephosphorylated by Alkaline phosphatase emitted a fluorescent signal of […] when excited by a signal […]. This reading was done on the Perkin Elmer Envision system. […] The signal was directly proportional to the activity of FGFR2 and compound inhibition of FGFR2 was monitored by a decrease in signal.
T1 sequence (P21802 22-821 N549H): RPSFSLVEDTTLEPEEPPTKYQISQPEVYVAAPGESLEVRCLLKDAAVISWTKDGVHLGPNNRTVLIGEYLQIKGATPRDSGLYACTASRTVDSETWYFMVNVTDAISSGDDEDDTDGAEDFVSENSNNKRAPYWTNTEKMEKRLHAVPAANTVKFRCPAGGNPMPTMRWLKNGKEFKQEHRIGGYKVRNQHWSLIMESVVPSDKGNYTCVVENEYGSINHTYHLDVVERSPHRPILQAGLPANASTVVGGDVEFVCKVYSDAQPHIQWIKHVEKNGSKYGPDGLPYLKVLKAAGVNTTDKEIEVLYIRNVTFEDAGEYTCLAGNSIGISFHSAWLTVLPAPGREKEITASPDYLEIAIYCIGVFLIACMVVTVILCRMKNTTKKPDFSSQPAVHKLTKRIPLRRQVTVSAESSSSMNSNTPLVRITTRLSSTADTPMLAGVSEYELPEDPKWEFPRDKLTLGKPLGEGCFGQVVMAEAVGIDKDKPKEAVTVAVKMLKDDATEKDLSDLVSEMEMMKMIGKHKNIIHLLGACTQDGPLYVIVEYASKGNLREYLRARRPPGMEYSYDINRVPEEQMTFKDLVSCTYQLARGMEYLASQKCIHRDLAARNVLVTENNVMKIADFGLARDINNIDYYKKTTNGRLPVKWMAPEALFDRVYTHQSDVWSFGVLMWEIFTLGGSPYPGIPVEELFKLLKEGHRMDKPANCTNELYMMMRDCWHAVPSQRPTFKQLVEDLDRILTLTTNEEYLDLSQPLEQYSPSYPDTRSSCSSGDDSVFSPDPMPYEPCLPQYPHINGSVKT
For `Cc1ccccc1Nc1nccn2c(NC(=O)OC(C)C)nnc12` [Compound 14, isopropyl {8-[(2-methylphenyl)amino][1,2,4]triazolo[4,3-a]pyrazin-3-yl}carbamate], the inhibition at 30 µM amounted to 82%.

Take `Nc1nnc2c(NCc3ccccc3Br)nccn12` [Compound 92, N^8-(2-bromobenzyl)[1,2,4]triazolo[4,3-a]pyrazine-3,8-diamine]: the inhibition at 30 µM came to 59.2%.

Take `COc1ccccc1N(C)c1nccn2c(NC(=O)OC(C)C)nnc12` [Compound 41, isopropyl {8-[(2-methoxyphenyl)(methyl)amino][1,2,4]triazolo[4,3-a]pyrazin-3-yl}carbamate]: the inhibition at 30 µM was 62.5%.

Consider `Cc1cccc(CNc2nccn3c(NC(=O)OC(C)C)nnc23)c1` [Compound 19, isopropyl {8-[(3-methylbenzyl)amino][1,2,4]triazolo[4,3-a]pyrazin-3-yl}carbamate], for which the inhibition at 30 µM is 55.2%.

As to `CC(C)OC(=O)Nc1nnc2c(Nc3ccccc3Cl)nccn12` [Compound 13, isopropyl {8-[(2-chlorophenyl)amino][1,2,4]triazolo[4,3-a]pyrazin-3-yl}carbamate], the inhibition at 30 µM worked out at 50.5%.

As for `COc1ccc(Nc2nccn3c(NC(=O)OC(C)C)nnc23)c(OC)c1` [Compound 35, isopropyl {8-[(2,4-dimethoxyphenyl)amino][1,2,4]triazolo[4,3-a]pyrazin-3-yl}carbamate], the inhibition at 30 µM is 57%.

For `Nc1nnc2c(NCc3ccccc3C(F)(F)F)nccn12` [Compound 143, N^8-[2-(trifluoromethyl)benzyl][1,2,4]triazolo[4,3-a]pyrazine-3,8-diamine], the inhibition at 30 µM stood at 73.2%.

In the case of `CC(C)OC(=O)Nc1nnc2c(NCCc3ccc(F)cc3)nccn12` [Compound 28, isopropyl (8-{[2-(4-fluorophenyl)ethyl]amino}[1,2,4]triazolo[4,3-a]pyrazin-3-yl)carbamate], the inhibition at 30 µM was 51.6%.

As for `Nc1nnc2c(Nc3cccc(F)c3)nccn12` [Compound 99, N^8-(3-fluorophenyl)[1,2,4]triazolo[4,3-a]pyrazine-3,8-diamine], the inhibition at 30 µM stood at 60.7%.

For the compound `CC(C)OC(=O)Nc1nnc2c(Nc3nc4ccccc4[nH]3)nccn12` [Compound 56, isopropyl [8-(1H-benzimidazol-2-ylamino)[1,2,4]triazolo[4,3-a]pyrazin-3-yl]carbamate], the inhibition at 30 µM was found to be 64.7%.

`CC(C)OC(=O)Nc1nnc2c(Nc3ccc4c(c3)CCC4)nccn12` [Compound 34, isopropyl [8-(2,3-dihydro-1H-inden-5-ylamino)[1,2,4]triazolo[4,3-a]pyrazin-3-yl]carbamate]: the inhibition at 30 µM worked out at 68.7%.

In the case of `CC(C)OC(=O)Nc1nnc2c(NCc3ccccc3C(F)(F)F)nccn12` [Compound 48, isopropyl (8-{[2-(trifluoromethyl)benzyl]amino}[1,2,4]triazolo[4,3-a]pyrazin-3-yl)carbamate], the inhibition at 30 µM amounted to 87%.

As for `Nc1nnc2c(NCc3ccc(C(F)(F)F)cc3)nccn12` [Compound 100, N^8-[4-(trifluoromethyl)benzyl][1,2,4]triazolo[4,3-a]pyrazine-3,8-diamine], the inhibition at 30 µM was 66.5%.

Take `Nc1nnc2c(NCc3ccccc3F)nccn12` [Compound 153, N^8-(2-fluorobenzyl)[1,2,4]triazolo[4,3-a]pyrazine-3,8-diamine]: the inhibition at 30 µM came out at 72.9%.

In the case of `CC(C)OC(=O)Nc1nnc2c(Nc3cccc(Cl)c3)nccn12` [Compound 67, isopropyl {8-[(3-chlorophenyl)amino][1,2,4]triazolo[4,3-a]pyrazin-3-yl}carbamate], the inhibition at 30 µM is 119%.

As to `COc1cc(CCNc2nccn3c(NC(=O)OC(C)C)nnc23)cc(OC)c1` [Compound 31, isopropyl (8-{[2-(3,5-dimethoxyphenyl)ethyl]amino}[1,2,4]triazolo[4,3-a]pyrazin-3-yl)carbamate], the inhibition at 30 µM came out at 96.5%.

In the case of `COc1ccc(Cl)cc1Nc1nccn2c(NC(=O)OC(C)C)nnc12` [Compound 7, isopropyl {8-[(5-chloro-2-methoxyphenyl)amino][1,2,4]triazolo[4,3-a]pyrazin-3-yl}carbamate], the inhibition at 30 µM was determined as 55.5%.

With `Cc1cccc(CCNc2nccn3c(NC(=O)OC(C)C)nnc23)c1` [Compound 42, isopropyl (8-{[2-(3-methylphenyl)ethyl]amino}[1,2,4]triazolo[4,3-a]pyrazin-3-yl)carbamate], the inhibition at 30 µM came out at 58.7%.

With `CC(C)OC(=O)Nc1nnc2c(NCc3ccc(-c4ccccc4)cc3)nccn12` [Compound 61, isopropyl {8-[(biphenyl-4-ylmethyl)amino][1,2,4]triazolo[4,3-a]pyrazin-3-yl}carbamate], the inhibition at 30 µM worked out at 100%.

Consider `CN(C)c1ccc(Nc2nccn3c(N)nnc23)cc1` [Compound 116, N^8-[4-(dimethylamino)phenyl][1,2,4]triazolo[4,3-a]pyrazine-3,8-diamine], for which the inhibition at 30 µM was found to be 50%.

For `CC(C)OC(=O)Nc1nnc2c(NCCc3ccc(Oc4ccccc4)cc3)nccn12` [Compound 36, isopropyl (8-{[2-(4-phenoxyphenyl)ethyl]amino}[1,2,4]triazolo[4,3-a]pyrazin-3-yl)carbamate], the inhibition at 30 µM was 51.4%.

On to `CN(c1cccc(Cl)c1)c1nccn2c(N)nnc12` [Compound 155, N^8-(3-chlorophenyl)-N^8-methyl[1,2,4]triazolo[4,3-a]pyrazine-3,8-diamine], for which the inhibition at 30 µM came to 57.4%.

Consider `COc1ccc(C)cc1Nc1nccn2c(N)nnc12` [Compound 124, N^8-(2-methoxy-5-methylphenyl)[1,2,4]triazolo[4,3-a]pyrazine-3,8-diamine], for which the inhibition at 30 µM came out at 73.5%.

Turning to `CC(C)OC(=O)Nc1nnc2c(NCc3cc(C(F)(F)F)cc(C(F)(F)F)c3)nccn12` [Compound 66, isopropyl (8-{[3,5-bis(trifluoromethyl)benzyl]amino}[1,2,4]triazolo[4,3-a]pyrazin-3-yl)carbamate], the inhibition at 30 µM is 58.4%.

Consider `Cc1cccc2c(CCNc3nccn4c(NC(=O)OC(C)C)nnc34)c[nH]c12` [Compound 85, isopropyl (8-{[2-(7-methyl-1H-indol-3-yl)ethyl]amino}[1,2,4]triazolo[4,3-a]pyrazin-3-yl)carbamate], for which the inhibition at 30 µM was 50.6%.

In the case of `Nc1nnc2c(Nc3ccccc3F)nccn12` [Compound 121, N^8-(2-fluorophenyl)[1,2,4]triazolo[4,3-a]pyrazine-3,8-diamine], the inhibition at 30 µM was 65.7%.

As to `COc1ccc(Cl)c(Nc2nccn3c(N)nnc23)c1` [Compound 154, N^8-(2-chloro-5-methoxyphenyl)[1,2,4]triazolo[4,3-a]pyrazine-3,8-diamine], the inhibition at 30 µM worked out at 82.8%.

Values taken from patent publication US8329705B2, “Substituted triazolo-pyrazine compounds” (ArQule, Inc., priority 2009, dated 2012).
